Results as given in patent US10351575B2, “Bicyclic urea, thiourea, guanidine and cyanoguanidine compounds useful for the treatment of pain” (Array BioPharma Inc., priority 2012, dated 2019).

Experiments:
Assay in all cases: KinaseProfiler off-target kinase profiling
Assay type in all cases: biochemical
Settings in all cases: 10 μM, ATP near Km
EphB2 = EphB2 (Homo sapiens (Human), UniProt P29323)
Method: (§1) Representative compounds (Examples 12, 32, 26 and 2) of the invention were tested for off-target kinase activity at a concentration of 10 μM by Millipore, Inc. in their KinaseProfiler™ service against all the kinases available in their full kinase panel. Compounds were run in duplicate at a concentration of ATP near the Km for each individual kinase according to Millipore's specifications. The results are shown in Table B. Data are reported as percent of control (POC) and are the average of the two replicates.

MSSK1 = MSSK1 (Homo sapiens (Human), UniProt Q9UPE1)
Method: as §1

JAK3 = JAK3 (Homo sapiens (Human), UniProt P52333)
Method: as §1

CAMK2g = CAMK2g (Homo sapiens (Human), UniProt Q13555)
Method: as §1

MYLK = MYLK (Homo sapiens (Human), UniProt Q15746)
Method: as §1

FAK = FAK (Homo sapiens (Human), UniProt Q05397)
Method: as §1

TBK1 = TBK1 (Homo sapiens (Human), UniProt Q9UHD2)
Method: as §1

Hck = Hck (Homo sapiens (Human), UniProt P08631)
Method: as §1

MAPKAP-K5 = MAPKAP-K5 (Homo sapiens (Human), UniProt Q8IW41)
Method: as §1

IGF-1R Activated = IGF-1R Activated (Homo sapiens (Human), UniProt P08069)
Method: as §1

Rsk1 = Rsk1 (Homo sapiens (Human), UniProt Q15418)
Method: as §1

DDR2 = DDR2 (Homo sapiens (Human), UniProt Q16832)
Method: as §1

IRR = IRR (Homo sapiens (Human), UniProt P14616)
Method: as §1

HIPK1 = HIPK1 (Homo sapiens (Human), UniProt Q86Z02)
Method: as §1

MRCKalpha = MRCKalpha (Homo sapiens (Human), UniProt Q5VT25)
Method: as §1

BLK_m = BLK_m (Mus musculus (Mouse), UniProt P16277)
Method: as §1

ERK2 = ERK2 (Homo sapiens (Human), UniProt P28482)
Method: as §1

CAMK1d = CAMK1d (Homo sapiens (Human), UniProt Q8IU85)
Method: as §1

IR Activated = IR Activated (Homo sapiens (Human), UniProt P06213)
Method: as §1

PKCdelta = PKCdelta (Homo sapiens (Human), UniProt Q05655)
Method: as §1

p38beta = p38beta (Homo sapiens (Human), UniProt Q15759)
Method: as §1

EphA1 = EphA1 (Homo sapiens (Human), UniProt P21709)
Method: as §1

CLK2 = CLK2 (Homo sapiens (Human), UniProt P49760)
Method: as §1

TAO3 = TAO3 (Homo sapiens (Human), UniProt Q9H2K8)
Method: as §1

CHK1 = CHK1 (Homo sapiens (Human), UniProt O14757)
Method: as §1

PKCzeta = PKCzeta (Homo sapiens (Human), UniProt Q05513)
Method: as §1

SGK2 = SGK2 (Homo sapiens (Human), UniProt Q9HBY8)
Method: as §1

ROCK-II = ROCK-II (Homo sapiens (Human), UniProt O75116)
Method: as §1

MKK4_m = MKK4_m (Mus musculus (Mouse), UniProt P47809)
Method: as §1

SRPK2 = SRPK2 (Homo sapiens (Human), UniProt P78362)
Method: as §1

DYRK2 = DYRK2 (Homo sapiens (Human), UniProt Q92630)
Method: as §1

CDK2/cyclinA = CDK2/cyclinA (Homo sapiens (Human), UniProt P24941)
Method: as §1

VRK2 = VRK2 (Homo sapiens (Human), UniProt Q86Y07)
Method: as §1

JAK2 = JAK2 (Homo sapiens (Human), UniProt O60674)
Method: as §1

CK1gamma1 = CK1gamma1 (Homo sapiens (Human), UniProt Q9HCP0)
Method: as §1

PRK2 = PRK2 (Homo sapiens (Human), UniProt Q16513)
Method: as §1

AURKA = AURKA (Homo sapiens (Human), UniProt O14965)
Method: as §1

TAO1 = TAO1 (Homo sapiens (Human), UniProt Q7L7X3)
Method: as §1

MAP4K2 = MAP4K2 (Homo sapiens (Human), UniProt Q12851)
Method: as §1

TAO3, sequence (Q9H2K8 whole entry): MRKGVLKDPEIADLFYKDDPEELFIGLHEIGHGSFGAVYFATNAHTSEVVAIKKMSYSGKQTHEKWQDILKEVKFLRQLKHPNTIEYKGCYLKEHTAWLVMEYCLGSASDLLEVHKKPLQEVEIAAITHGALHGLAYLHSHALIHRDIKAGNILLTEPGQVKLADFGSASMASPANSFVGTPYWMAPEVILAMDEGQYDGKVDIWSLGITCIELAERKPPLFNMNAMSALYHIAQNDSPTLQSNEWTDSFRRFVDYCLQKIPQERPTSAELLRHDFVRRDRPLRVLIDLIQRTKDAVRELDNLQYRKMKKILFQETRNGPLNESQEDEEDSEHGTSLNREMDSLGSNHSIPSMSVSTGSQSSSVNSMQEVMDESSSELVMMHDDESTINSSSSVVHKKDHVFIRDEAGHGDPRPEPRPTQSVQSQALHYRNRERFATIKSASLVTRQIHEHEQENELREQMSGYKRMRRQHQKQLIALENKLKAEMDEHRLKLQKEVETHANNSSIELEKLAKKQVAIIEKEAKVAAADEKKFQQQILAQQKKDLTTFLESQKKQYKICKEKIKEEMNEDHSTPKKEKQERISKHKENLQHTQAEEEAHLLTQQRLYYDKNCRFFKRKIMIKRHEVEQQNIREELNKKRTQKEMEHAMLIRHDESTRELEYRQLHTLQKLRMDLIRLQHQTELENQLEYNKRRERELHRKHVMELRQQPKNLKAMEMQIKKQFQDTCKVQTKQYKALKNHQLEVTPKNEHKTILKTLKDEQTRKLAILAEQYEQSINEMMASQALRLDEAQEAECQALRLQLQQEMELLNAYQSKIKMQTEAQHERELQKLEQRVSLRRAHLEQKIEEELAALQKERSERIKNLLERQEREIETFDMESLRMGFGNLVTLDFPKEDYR
ROCK-II, sequence (O75116 whole entry): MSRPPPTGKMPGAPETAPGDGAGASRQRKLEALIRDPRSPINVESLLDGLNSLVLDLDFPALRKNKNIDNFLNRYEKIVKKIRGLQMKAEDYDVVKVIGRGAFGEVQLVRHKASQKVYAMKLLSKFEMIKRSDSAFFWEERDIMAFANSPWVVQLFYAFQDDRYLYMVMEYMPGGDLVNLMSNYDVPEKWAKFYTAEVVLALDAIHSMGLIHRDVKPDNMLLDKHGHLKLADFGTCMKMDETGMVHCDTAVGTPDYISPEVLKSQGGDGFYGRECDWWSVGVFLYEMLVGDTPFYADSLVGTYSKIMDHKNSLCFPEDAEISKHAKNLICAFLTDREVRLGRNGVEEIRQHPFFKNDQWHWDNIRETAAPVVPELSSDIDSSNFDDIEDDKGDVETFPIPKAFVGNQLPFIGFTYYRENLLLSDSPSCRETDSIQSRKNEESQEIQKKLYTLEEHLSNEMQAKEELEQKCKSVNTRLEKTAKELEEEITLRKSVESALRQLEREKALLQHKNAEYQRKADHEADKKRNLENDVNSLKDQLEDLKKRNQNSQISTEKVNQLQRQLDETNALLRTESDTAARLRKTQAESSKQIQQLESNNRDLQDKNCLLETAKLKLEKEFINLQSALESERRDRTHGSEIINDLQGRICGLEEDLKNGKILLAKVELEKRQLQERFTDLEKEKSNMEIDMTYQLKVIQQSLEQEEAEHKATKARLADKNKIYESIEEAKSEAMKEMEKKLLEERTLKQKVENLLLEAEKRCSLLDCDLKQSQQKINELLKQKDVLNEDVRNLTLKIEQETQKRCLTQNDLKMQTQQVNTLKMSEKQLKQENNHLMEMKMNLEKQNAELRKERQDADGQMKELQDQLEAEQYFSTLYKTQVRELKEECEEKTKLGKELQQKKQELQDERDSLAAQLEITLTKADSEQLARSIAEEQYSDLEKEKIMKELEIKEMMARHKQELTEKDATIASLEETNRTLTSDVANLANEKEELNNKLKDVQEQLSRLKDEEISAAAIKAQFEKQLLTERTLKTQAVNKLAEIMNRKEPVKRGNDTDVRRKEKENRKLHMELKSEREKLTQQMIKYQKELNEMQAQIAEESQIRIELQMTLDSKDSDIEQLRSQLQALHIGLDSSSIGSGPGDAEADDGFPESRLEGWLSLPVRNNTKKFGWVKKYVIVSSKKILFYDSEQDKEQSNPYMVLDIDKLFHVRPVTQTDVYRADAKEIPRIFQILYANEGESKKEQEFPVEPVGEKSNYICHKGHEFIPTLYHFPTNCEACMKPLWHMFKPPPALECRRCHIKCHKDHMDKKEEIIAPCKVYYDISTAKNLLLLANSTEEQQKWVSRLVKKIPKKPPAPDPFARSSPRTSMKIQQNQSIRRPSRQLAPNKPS
p38beta, sequence (Q15759 whole entry): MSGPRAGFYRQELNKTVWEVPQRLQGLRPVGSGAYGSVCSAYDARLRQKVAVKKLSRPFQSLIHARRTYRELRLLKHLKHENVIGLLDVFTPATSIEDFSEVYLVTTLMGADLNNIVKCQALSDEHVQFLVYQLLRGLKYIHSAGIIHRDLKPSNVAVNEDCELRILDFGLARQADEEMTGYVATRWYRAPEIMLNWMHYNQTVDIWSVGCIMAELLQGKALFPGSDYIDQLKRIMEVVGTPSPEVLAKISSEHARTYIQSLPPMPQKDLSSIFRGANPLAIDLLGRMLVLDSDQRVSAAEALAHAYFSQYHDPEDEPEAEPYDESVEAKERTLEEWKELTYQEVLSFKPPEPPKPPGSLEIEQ
TAO1, sequence (Q7L7X3 whole entry): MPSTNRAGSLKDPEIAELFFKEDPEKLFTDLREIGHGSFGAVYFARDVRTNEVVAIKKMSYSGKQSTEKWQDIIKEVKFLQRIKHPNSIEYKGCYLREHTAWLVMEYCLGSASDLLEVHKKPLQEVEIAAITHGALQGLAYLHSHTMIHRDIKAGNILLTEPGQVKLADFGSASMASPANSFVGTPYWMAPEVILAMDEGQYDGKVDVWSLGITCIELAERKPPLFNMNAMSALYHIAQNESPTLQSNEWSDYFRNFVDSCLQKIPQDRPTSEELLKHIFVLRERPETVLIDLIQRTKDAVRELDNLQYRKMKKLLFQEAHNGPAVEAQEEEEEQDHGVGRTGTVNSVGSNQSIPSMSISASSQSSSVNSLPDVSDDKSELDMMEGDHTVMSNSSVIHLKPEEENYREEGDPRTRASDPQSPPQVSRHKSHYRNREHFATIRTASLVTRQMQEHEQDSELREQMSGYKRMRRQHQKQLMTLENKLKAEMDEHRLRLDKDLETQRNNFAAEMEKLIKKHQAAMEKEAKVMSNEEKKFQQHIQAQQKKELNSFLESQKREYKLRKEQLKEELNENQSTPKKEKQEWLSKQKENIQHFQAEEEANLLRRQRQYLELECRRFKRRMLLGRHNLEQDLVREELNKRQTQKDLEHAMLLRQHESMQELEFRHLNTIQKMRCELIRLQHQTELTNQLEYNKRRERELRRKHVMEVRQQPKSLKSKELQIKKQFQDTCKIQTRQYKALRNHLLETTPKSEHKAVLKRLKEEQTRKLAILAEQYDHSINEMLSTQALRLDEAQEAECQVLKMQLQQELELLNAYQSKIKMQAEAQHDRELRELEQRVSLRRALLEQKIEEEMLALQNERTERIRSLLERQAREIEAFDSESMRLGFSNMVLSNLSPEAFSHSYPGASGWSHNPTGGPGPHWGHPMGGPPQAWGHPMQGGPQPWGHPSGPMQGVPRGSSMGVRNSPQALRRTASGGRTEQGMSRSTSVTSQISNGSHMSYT
VRK2, sequence (Q86Y07 whole entry): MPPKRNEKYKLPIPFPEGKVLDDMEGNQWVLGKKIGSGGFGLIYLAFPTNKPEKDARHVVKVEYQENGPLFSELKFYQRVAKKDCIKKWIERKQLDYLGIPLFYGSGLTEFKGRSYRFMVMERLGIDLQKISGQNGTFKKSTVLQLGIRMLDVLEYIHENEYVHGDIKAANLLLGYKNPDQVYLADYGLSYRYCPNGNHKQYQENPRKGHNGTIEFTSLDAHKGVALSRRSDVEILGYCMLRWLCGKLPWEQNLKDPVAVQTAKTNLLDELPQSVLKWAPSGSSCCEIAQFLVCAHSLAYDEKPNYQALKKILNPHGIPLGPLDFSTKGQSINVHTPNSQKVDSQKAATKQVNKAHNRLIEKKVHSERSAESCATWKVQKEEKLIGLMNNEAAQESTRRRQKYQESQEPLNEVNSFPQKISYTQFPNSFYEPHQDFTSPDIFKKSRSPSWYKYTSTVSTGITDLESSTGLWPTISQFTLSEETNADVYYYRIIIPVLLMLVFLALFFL
IR Activated, sequence (P06213 1005-1310 limits assumed): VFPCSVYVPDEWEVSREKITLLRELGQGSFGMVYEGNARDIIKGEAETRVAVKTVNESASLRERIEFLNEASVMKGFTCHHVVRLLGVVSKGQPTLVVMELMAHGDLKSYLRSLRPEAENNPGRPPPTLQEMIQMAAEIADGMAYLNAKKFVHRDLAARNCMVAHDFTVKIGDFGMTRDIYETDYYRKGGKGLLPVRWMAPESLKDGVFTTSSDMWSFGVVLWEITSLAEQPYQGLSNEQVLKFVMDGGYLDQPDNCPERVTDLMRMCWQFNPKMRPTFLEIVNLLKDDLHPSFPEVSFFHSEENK
IGF-1R Activated, sequence (P08069 959-1367 limits assumed): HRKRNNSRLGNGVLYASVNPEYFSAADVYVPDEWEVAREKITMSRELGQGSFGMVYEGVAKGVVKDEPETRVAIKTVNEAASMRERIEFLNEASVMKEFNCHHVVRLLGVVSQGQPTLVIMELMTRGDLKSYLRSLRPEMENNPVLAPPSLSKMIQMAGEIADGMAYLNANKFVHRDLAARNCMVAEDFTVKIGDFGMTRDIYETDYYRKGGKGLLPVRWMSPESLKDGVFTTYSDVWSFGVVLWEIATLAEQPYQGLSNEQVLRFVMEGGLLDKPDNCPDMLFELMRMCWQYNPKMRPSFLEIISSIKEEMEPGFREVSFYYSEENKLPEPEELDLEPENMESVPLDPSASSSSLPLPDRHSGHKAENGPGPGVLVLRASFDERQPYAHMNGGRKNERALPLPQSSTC

Avg. POC (EphB2) | Avg. POC (MSSK1) | Avg. POC (JAK3) | Avg. POC (CAMK2g) | Avg. POC (MYLK) | Avg. POC (FAK) | Avg. POC (TBK1) | Avg. POC (Hck) | Avg. POC (MAPKAP-K5) | Avg. POC (IGF-1R Activated) | Avg. POC (Rsk1) | Avg. POC (DDR2) | Avg. POC (IRR) | Avg. POC (HIPK1) | Avg. POC (MRCKalpha) | Avg. POC (BLK_m) | Avg. POC (ERK2) | Avg. POC (CAMK1d) | Avg. POC (IR Activated) | Avg. POC (PKCdelta) | SMILES | further results
125 POC | 116 POC | 142.5 POC | 107.5 POC | 100 POC | 116.5 POC | 116 POC | 85.5 POC | 113.5 POC | 95 POC | 117 POC | 113 POC | 2.5 POC | 97 POC | 127.5 POC | 126 POC | 112.5 POC | 127 POC | 103 POC | 95 POC | Cc1c(-c2cnn(C)c2)nn(-c2ccccc2)c1NC(=O)N[C@H]1CCCc2ccccc21 [Example 2, (S)-1-(1′,4-dimethyl-1-phenyl-1H,1′H-3,4′-bipyrazol-5-yl)-3-(1,2,3,4-tetrahydronaphthalen-1-yl)urea] | Avg. POC (p38beta): 113 POC; Avg. POC (EphA1): 85 POC; Avg. POC (CLK2): 115.5 POC; Avg. POC (TAO3): 111 POC; Avg. POC (CHK1): 106.5 POC; Avg. POC (PKCzeta): 122.5 POC; Avg. POC (SGK2): 166.5 POC; Avg. POC (ROCK-II): 108 POC; Avg. POC (MKK4_m): 102.5 POC; Avg. POC (SRPK2): 106 POC; Avg. POC (DYRK2): 98 POC; Avg. POC (CDK2/cyclinA): 127 POC; Avg. POC (VRK2): 109 POC; Avg. POC (JAK2): 233 POC; Avg. POC (CK1gamma1): 116.5 POC; Avg. POC (PRK2): 128 POC; Avg. POC (AURKA): 126 POC; Avg. POC (TAO1): 110.5 POC; Avg. POC (MAP4K2): 110 POC
112 POC | 112.5 POC | 112 POC | 107.5 POC | 99 POC | 104 POC | 103 POC | 103.5 POC | 96 POC | 102.5 POC | 107.5 POC | 107 POC | 91 POC | 102.5 POC | 139 POC | 112 POC | 106.5 POC | 137 POC | 109 POC | 97.5 POC | Cc1c(-c2cnn(C)c2)nn(-c2ccccc2)c1NC(=O)NC1CCOc2cc(F)ccc21 (stereo not drawn) [Example 12, 1-(1′,4-dimethyl-1-phenyl-1H,1′H-[3,4′-bipyrazol]-5-yl)-3-(7-fluorochroman-4-yl)urea] | Avg. POC (p38beta): 115.5 POC; Avg. POC (EphA1): 100 POC; Avg. POC (CLK2): 100 POC; Avg. POC (TAO3): 99 POC; Avg. POC (CHK1): 99.5 POC; Avg. POC (PKCzeta): 99.5 POC; Avg. POC (SGK2): 148 POC; Avg. POC (ROCK-II): 99 POC; Avg. POC (MKK4_m): 144.5 POC; Avg. POC (SRPK2): 101.5 POC; Avg. POC (DYRK2): 97.5 POC; Avg. POC (CDK2/cyclinA): 112 POC; Avg. POC (VRK2): 95 POC; Avg. POC (JAK2): 122.5 POC; Avg. POC (CK1gamma1): 98.5 POC; Avg. POC (PRK2): 97.5 POC; Avg. POC (AURKA): 111 POC; Avg. POC (TAO1): 104 POC; Avg. POC (MAP4K2): 107.5 POC
109.5 POC | 120.5 POC | 112 POC | 101 POC | 101 POC | 105 POC | 113 POC | 91.5 POC | 101.5 POC | 98 POC | 121 POC | 111 POC | 89 POC | 111 POC | 124.5 POC | 103.5 POC | 107.5 POC | 97 POC | 106 POC | 105 POC | Cc1c(-c2ccc(=O)n(C)c2)nn(-c2ccccc2)c1NC(=O)NC1CN(CC(F)(F)F)Cc2ccccc21 (stereo not drawn) [Example 26, 1-(4-methyl-3-(1-methyl-6-oxo-1,6-dihydropyridin-3-yl)-1-phenyl-1H-pyrazol-5-yl)-3-(2-(2,2,2-trifluoroethyl)-1,2,3,4-tetrahydroisoquinolin-4-yl)urea] | Avg. POC (p38beta): 115.5 POC; Avg. POC (EphA1): 101 POC; Avg. POC (CLK2): 108.5 POC; Avg. POC (TAO3): 109 POC; Avg. POC (CHK1): 70.5 POC; Avg. POC (PKCzeta): 108.5 POC; Avg. POC (SGK2): 123.5 POC; Avg. POC (ROCK-II): 110 POC; Avg. POC (MKK4_m): 99.5 POC; Avg. POC (SRPK2): 106 POC; Avg. POC (DYRK2): 103 POC; Avg. POC (CDK2/cyclinA): 114.5 POC; Avg. POC (VRK2): 98 POC; Avg. POC (JAK2): 134.5 POC; Avg. POC (CK1gamma1): 106.5 POC; Avg. POC (PRK2): 110.5 POC; Avg. POC (AURKA): 107.5 POC; Avg. POC (TAO1): 105.5 POC; Avg. POC (MAP4K2): 121 POC
96.5 POC | 105.5 POC | 109.5 POC | 105 POC | 97.5 POC | 116.5 POC | 108.5 POC | 98 POC | 108 POC | 112.5 POC | 111.5 POC | 116 POC | 109.5 POC | 115 POC | 131 POC | 111 POC | 128.5 POC | 114 POC | 111.5 POC | 99 POC | COCc1ccc2c(c1)C(NC(=O)Nc1c(C)c(-c3cnn(C)c3)nn1-c1ccccc1)COC2 (stereo not drawn) [Example 32, 1-(1′,4-dimethyl-1-phenyl-1H,1′H-[3,4′-bipyrazol]-5-yl)-3-(6-(methoxymethyl)isochroman-4-yl)urea] | Avg. POC (p38beta): 119 POC; Avg. POC (EphA1): 114 POC; Avg. POC (CLK2): 105.5 POC; Avg. POC (TAO3): 105 POC; Avg. POC (CHK1): 103 POC; Avg. POC (PKCzeta): 115 POC; Avg. POC (SGK2): 123.5 POC; Avg. POC (ROCK-II): 106 POC; Avg. POC (MKK4_m): 133 POC; Avg. POC (SRPK2): 106.5 POC; Avg. POC (DYRK2): 97.5 POC; Avg. POC (CDK2/cyclinA): 118 POC; Avg. POC (VRK2): 100.5 POC; Avg. POC (JAK2): 122.5 POC; Avg. POC (CK1gamma1): 111.5 POC; Avg. POC (PRK2): 99.5 POC; Avg. POC (AURKA): 112.5 POC; Avg. POC (TAO1): 100 POC; Avg. POC (MAP4K2): 119.5 POC
